In article PMC11062899, “De novo development of small cyclic peptides that are orally bioavailable” (Nature Chemical Biology, 2023):
Square brackets hold non-standard residues; d marks the D form. Peptide text beside a SMILES is read from it. NMeY = CN[C@@H](Cc1ccc(O)cc1)C(=O)O; NMeL = CN[C@@H](CC(C)C)C(=O)O; dNMeL = CN[C@H](CC(C)C)C(=O)O

Tests used:
in vivo = settings: male, Wistar Han, rat
Protocol: Male Wistar Han rats (250–350 g) obtained at an age of 9–10 weeks from Charles River Laboratories were used for the studies and kept in housing groups of two or three. Experiments were performed at the age of 10–11 weeks. Intravenous (i.v.) administrations were carried out using tail vein injections. Peptides were dissolved in pure DMSO and diluted with 5% Cremophor EL in water (5% DMSO final) at a concentration of 0.5 mg ml^−1. I.v. administration was carried out at a dose of 1 mg kg^−1 body weight via the left lateral tail vein of rats (n = 3) using an Insyte-W 24 G × 0.75 in. (0.7 mm × 19 mm) temporary peripheral venous catheter (BD Biosciences, 381312). Before injecting the peptide solution, a correct placement of the catheter was confirmed by an apparent reflux of blood through the catheter. Orally (p.o.) administrated peptides were dissolved in DMSO and diluted with 10% Cremophor EL in water (5% DMSO final) at a concentration of 1 mg ml^−1 and administrated by oral gavage to rats (n = 3) at a dose of 10 mg kg^−1. Rats used for oral administration were fasted overnight for 14 h and provided access to food again 2 h after administration, whereas access to water was not restricted throughout the whole experimental procedure. Volumes of 100 μl of blood samples were collected via the right lateral tail vein at different timepoints after i.v. or p.o. administration into heparinized tubes (Sarstedt, 20.1282); the samples were stored on ice for up to 4 h; and plasma was obtained by centrifugation at 2,000g for 5 min at 4 °C. A volume of 40 μl of plasma was added to 120 μl of an acetonitrile:water (9:1) solution containing an internal standard (5 μg ml^−1). Samples were vortexed for 10 s and sonicated for 10 min, and precipitated plasma proteins were pelleted by centrifugation at 16,000g for 15 min at 4 °C. Volumes of 120 μl of supernatant were transferred to a new tube, and solvent was evaporated in a rotary vacuum concentrator (RVC 2–33 CDplus IR, Christ) for 2 h at 40 °C. Dried residues were dissolved in 20 μl of a water:acetonitrile (7:3) (v/v) solution, centrifuged at 14,000g for 5 min and analyzed by LC–MS. Peptides were quantified by extracting ion chromatograms corresponding to their respective mass, integrating the area under the peptide peak and calculating the concentrations by normalization to a calibration curve. Calibration curves were prepared by analyzing spiked samples of blood or plasma with known concentrations of peptide. The absolute oral bioavailability was calculated using equation (6).6 F=AUCp.o./AUCi.v.×Dosei.v./Dosep.o.×100 where AUCp.o. and AUCi.v. are calculated from a plasma concentration versus time curve using the linear trapezoidal rule, and Dosei.v. and Dosep.o. are the intravenously or orally administrated amount of peptide in mg kg^−1.

porcine pepsin = target: T1, porcine pepsin (Sus scrofa, UniProt P00791); experiment: Peptide stability in simulated gastric fluid (SGF); type: in vitro ADME; set-up: remaining at 8 h: dose or concentration left out as unconfirmed; settings: pig, simulated gastric fluid (SGF) with porcine pepsin; 8 h, 37 °C, pH 1.2; read-out: Proteolytic stability: SGF (8 h) % remaining
T1 construct: 0.32 g of porcine pepsin (Sigma-Aldrich, P7125) was dissolved under gentle agitation; purchased Sigma-Aldrich P7125
Outline: (§1)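 Peptide from a 1 mM DMSO stock was added to fluid pre-warmed at 37 °C. SGF was pH 1.2 NaCl with porcine pepsin (0.32 g per 100 ml), and SIF was pH 6.8 potassium phosphate with porcine pancreatin (1 g per 100 ml). Supernatant peptide was quantified by LC–MS, with residual expressed as T1/T0.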

[1] = Metabolic stability in rat liver microsomes (RLMs); settings: rat liver microsomes; for half-life at 10 μM / microsomal CLint at 10 μM: rat
porcine pancreatin = experiment: Peptide stability in simulated intestinal fluid (SIF); type: in vitro ADME; set-up: remaining at 8 h: dose or concentration left out as unconfirmed; settings: pig, simulated intestinal fluid (SIF) with porcine pancreatin; 8 h, 37 °C, pH 6.8; read-out: Proteolytic stability: SIF (8 h) % remaining
Outline: as §1

[2] = cited from earlier work
[3] = set-up: method as in PMID 19696042; settings: cited from earlier work
[4] = pH 7.4, Metabolic stability: Half life T1/2 (min), RLMs, mean and SD, three measurements
[5] = pH 7.4, Metabolic stability: RLM CL (ul/min/mg), RLMs, mean and SD, three measurements

T1 sequence (P00791 60-385): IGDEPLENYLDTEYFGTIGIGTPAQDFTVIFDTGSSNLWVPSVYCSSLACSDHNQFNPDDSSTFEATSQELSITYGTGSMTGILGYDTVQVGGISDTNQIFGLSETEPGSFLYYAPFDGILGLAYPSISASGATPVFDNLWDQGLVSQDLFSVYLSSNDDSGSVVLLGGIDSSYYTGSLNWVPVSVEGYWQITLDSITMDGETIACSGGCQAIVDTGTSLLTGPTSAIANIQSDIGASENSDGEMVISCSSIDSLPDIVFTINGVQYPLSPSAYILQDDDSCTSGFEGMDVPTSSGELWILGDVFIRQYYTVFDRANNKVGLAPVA

Row | Compound | bioavailability (in vivo) [%] | half-life (in vivo; iv) [min] | remaining at 8 h (porcine pepsin) [%] | half-life at 10 μM [1, 4] [min] | microsomal CLint at 10 μM [1, 5] [µL/min/mg] | remaining at 8 h (porcine pancreatin) [%] | Half Life ([1]; individual replicates R1-R3) [min] | RLM CL ([1]; individual replicates R1-R3, incubation volume 400 ul, protein 0.5 mg/ml) [ul/min/mg protein] | half-life at 10 μM ([1]; pH 7.4, Half Life Mean, mean of R1-R3) [min] | half-life at 10 μM ([1]; pH 7.4, Half Life, individual replicates R1-R3) [min] | microsomal CLint at 10 μM ([1]; pH 7.4, RLM CL Mean, mean of R1-R3) [µL/min/mg] | microsomal CLint at 10 μM ([1]; pH 7.4, RLM CL, individual replicates R1-R3, incubation volume 400 ul, protein 0.5 mg/ml) [µL/min/mg] | metabolic clearance in humans [2] | oral availability [3] [%]
1 | CC(C)C[C@@H]1NC(=O)[C@H](Cc2ccc(O)cc2)N(C)C(=O)[C@H]2CCCN2C(=O)[C@H](CC(C)C)NC(=O)[C@H](CC(C)C)N(C)C(=O)[C@@H](CC(C)C)N(C)C1=O [1NMe3, reference compound] (cyclo(L[dNMeL][NMeL]L[dP][NMeY])) | 27 ± 4 | 110 | 93 ± 12 | 193 ± 42 | 7.6 ± 1.9 | 98 ± 6 | – | – | – | – | – | – | – | –
2 | COc1ccc([C@@H]2Sc3ccccc3N(CCN(C)C)C(=O)[C@@H]2OC(C)=O)cc1 [Diltiazem, diltiazem, reference compound] | – | – | – | 13.4 ± 1.1 | 104 ± 8 | – | 12.36 | 112.14 | 13.4 | 14.9 | 104 | 93 | around 15 ml min^−1 kg^−1 | –
3 | CCCCCCOC(=O)NC(=N)c1ccc(NCc2nc3cc(C(=O)N(CCC(=O)OCC)c4ccccn4)ccc3n2C)cc1 [dabigatran etexilate] | – | – | – | – | – | – | – | – | – | – | – | – | – | 6.5
